Experimental data published in patent publication US8637511B2, “Aminopyrimidines useful as kinase inhibitors” (Vertex Pharmaceuticals Incorporated, priority 2005, dated 2014).
Where “and” joins values, the source holds several entries; their conditions need not be identical. Identical values can stand only once. Like-named read-outs stand apart in the source and are kept apart here.

What was measured:
Colo205 cells = assay: Analysis of cell proliferation and viability; assay type: cell-based; conditions: Homo sapiens, read-out: IC50 value
Method: Colo205 cells were seeded in 96 well plates and serially diluted compound was added to the wells in duplicate. Control groups included untreated cells, the compound diluent (0.1% DMSO alone) and culture medium without cells.
To measure proliferation, 3 h prior to the end of the experiment 0.5 μCi of 3H thymidine was added to each well. Cells were then harvested and the incorporated radioactivity counted on a Wallac microplate beta-counter. Cell viability was assessed using Promega CellTiter 96AQ to measure MTS conversion. Dose response curves were calculated using either Prism 3.0 (GraphPad) or SoftMax Pro 4.3.1 LS (Molecular Devices) software.

JAK3 = biological target: T1, JAK3 (Homo sapiens, UniProt P52333); assay: biochemical
T1 sequence (P52333 1-1124): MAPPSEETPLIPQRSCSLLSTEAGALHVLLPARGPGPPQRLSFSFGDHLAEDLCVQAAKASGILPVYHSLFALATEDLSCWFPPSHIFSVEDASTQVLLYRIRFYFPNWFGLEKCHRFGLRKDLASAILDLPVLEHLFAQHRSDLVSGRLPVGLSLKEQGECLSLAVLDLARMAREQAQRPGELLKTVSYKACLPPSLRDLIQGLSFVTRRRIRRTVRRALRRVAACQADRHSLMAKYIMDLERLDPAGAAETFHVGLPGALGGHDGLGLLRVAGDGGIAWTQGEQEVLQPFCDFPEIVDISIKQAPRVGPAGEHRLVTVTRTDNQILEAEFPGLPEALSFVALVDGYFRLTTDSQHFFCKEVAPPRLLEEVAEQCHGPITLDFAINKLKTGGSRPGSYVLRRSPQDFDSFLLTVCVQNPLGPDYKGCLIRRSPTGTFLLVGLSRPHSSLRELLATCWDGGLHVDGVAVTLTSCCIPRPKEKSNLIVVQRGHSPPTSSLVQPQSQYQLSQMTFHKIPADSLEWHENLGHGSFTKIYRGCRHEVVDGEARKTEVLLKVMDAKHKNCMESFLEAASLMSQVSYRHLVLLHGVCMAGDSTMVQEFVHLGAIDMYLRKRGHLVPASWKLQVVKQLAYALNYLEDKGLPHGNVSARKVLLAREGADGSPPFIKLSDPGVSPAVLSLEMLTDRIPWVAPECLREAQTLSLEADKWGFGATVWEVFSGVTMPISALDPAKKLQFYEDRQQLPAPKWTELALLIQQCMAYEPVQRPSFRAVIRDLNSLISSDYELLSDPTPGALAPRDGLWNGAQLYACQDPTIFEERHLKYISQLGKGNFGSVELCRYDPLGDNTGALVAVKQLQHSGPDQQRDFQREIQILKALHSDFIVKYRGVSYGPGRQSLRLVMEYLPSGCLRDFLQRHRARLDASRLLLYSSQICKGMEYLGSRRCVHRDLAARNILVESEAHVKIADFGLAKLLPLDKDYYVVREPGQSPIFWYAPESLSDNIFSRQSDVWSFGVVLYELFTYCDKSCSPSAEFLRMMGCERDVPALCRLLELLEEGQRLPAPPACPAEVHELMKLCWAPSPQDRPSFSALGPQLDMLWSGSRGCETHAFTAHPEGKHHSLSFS
Method: Reactions were carried out in a kinase buffer containing 100 mM HEPES (pH 7.4), 1 mM DTT, 10 mM MgCl2, 25 mM NaCl, and 0.01% BSA. Substrate concentrations in the assay were 5 μM ATP (200 uCi/μmole ATP) and 1 μM poly(Glu)4Tyr. Reactions were carried out at 25° C. and 1 nM JAK3.
To each well of a 96 well polycarbonate plate was added 1.5 μl of a candidate JAK3 inhibitor along with 50 μl of kinase buffer containing 2 μM poly(Glu)4Tyr and 10 μM ATP. This was then mixed and 50 μl of kinase buffer containing 2 nM JAK3 enzyme was added to start the reaction. After 20 minutes at room temperature (25 C), the reaction was stopped with 50 μl of 20% trichloroacetic acid (TCA) that also contained 0.4 mM ATP. The entire contents of each well were then transferred to a 96 well glass fiber filter plate using a TomTek Cell Harvester. After washing, 60 μl of scintillation fluid was added and ^33P incorporation detected on a Perkin Elmer TopCount.

Aurora-1 (Aurora B) = Aurora-1 (Aurora B) (Homo sapiens, UniProt Q96GD4); assay: Aurora-1 (Aurora B) inhibition assay (radiometric); assay type: biochemical; conditions: read-out: Aurora B kinase Ki value
Sequence of Aurora-1 (Aurora B) (Q96GD4 whole entry): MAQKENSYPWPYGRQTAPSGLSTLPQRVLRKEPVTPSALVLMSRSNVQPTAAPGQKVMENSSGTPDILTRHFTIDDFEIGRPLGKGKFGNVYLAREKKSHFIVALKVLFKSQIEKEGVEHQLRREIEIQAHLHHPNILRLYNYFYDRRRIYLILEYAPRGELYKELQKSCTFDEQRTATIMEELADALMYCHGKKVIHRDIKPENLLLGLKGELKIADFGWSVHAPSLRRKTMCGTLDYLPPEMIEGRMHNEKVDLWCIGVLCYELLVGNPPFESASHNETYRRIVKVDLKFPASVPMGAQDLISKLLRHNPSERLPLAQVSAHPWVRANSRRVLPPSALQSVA
Method: An assay buffer solution was prepared which consisted of 25 mM HEPES (pH 7.5), 10 mM MgCl2, 0.1% BSA and 10% glycerol. […] To 22 μL of the Aurora-B solution, in a 96-well plate, was added 2 μl of a compound stock solution in DMSO and the mixture allowed to equilibrate for 10 minutes at 25° C. The enzyme reaction was initiated by the addition of 16 μl stock [γ-^33P]-ATP solution (˜20 nCi/μL) prepared in assay buffer, to a final assay concentration of 800 μM. The reaction was stopped after 3 hours by the addition of 16 μL 500 mM phosphoric acid and the levels of ^33P incorporation into the peptide substrate were determined by the following method.
A phosphocellulose 96-well plate (Millipore, Cat no. MAPHNOB50) was pre-treated with 100 μL of a 100 mM phosphoric acid prior to the addition of the enzyme reaction mixture (40 μL). The solution was left to soak on to the phosphocellulose membrane for 30 minutes and the plate subsequently washed four times with 200 μL of a 100 mM phosphoric acid. […] Levels of non-enzyme catalyzed background radioactivity were determined by adding 16 μL of the 500 mM phosphoric acid to control wells, containing all assay components (which acts to denature the enzyme), prior to the addition of the [γ-^33P]-ATP solution. Levels of enzyme catalyzed. ^33P incorporation were calculated by subtracting mean background counts from those measured at each inhibitor concentration. […] Ki values were calculated from initial rate data by non-linear regression using the Prism software package (Prism 3.0, Graphpad Software, San Diego, Calif.).

Aurora-2 (Aurora A) = biological target: T2, Aurora-2 (Aurora A) (Homo sapiens, UniProt O14965); assay: Aurora-2 (Aurora A) inhibition assay, coupled enzyme; assay type: biochemical
T2 sequence (O14965 1-403): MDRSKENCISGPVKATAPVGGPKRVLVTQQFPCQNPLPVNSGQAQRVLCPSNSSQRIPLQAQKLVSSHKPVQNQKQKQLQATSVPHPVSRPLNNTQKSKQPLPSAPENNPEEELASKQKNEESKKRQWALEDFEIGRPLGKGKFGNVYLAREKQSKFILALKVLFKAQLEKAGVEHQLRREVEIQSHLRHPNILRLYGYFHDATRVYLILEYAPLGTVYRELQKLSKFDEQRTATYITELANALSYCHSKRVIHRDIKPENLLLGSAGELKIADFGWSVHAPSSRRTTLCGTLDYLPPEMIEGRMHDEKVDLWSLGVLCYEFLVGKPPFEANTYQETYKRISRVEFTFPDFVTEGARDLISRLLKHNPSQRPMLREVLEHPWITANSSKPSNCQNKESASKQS
Method: Assays were carried out in a mixture of 100 mM Hepes (pH7.5), 10 mM MgCl2, 1 mM DTT, 25 mM NaCl, 2.5 mM phosphoenolpyruvate, 300 μM NADH, 30 μg/ml pyruvate kinase and 10 μg/ml lactate dehydrogenase. […] Assays were carried out at 30° C. and in the presence of 40 nM Aurora-2.
The plate was preincubated for 10 minutes at 30° C. and the reaction initiated by addition of 10 μl of Aurora-2. Initial reaction rates were determined with a Molecular Devices SpectraMax Plus plate reader over a 10 minute time course. IC50 and Ki data were calculated from non-linear regression analysis using the Prism software package (GraphPad Prism version 3.0cx for Macintosh, GraphPad Software, San Diego Calif., USA).

[1] = COLO 205, Colo205 cells, incubated for 72 hours
[2] = COLO 205, Colo205 cells, incubated for 96 hours
[3] = read-out: Aurora A kinase Ki value

| SMILES | IC50 (Colo205 cells; [1]) [nM] | Ki (JAK3) [nM] | IC50 (Colo205 cells; [2]) [nM] | Ki (Aurora-1 (Aurora B)) | Ki (Aurora-2 (Aurora A); [3]) [nM] | other results |
| --- | --- | --- | --- | --- | --- | --- |
| Cc1cc(Nc2cc(N3CC(F)(C4CC4)C3)nc(Sc3ccc(NC(=O)CC4CC4)cc3)n2)[nH]n1 [Compound 171] | 30 to 200 | 500 to 2000 | – | – | – | – |
| Cc1cc(Nc2cc(N3CC(O)(C4CC4)C3)nc(Sc3ccc(NC(=O)C4CC4)cc3)n2)n[nH]1 [Compound 103] | – | 10 to 500 | – | – | – | IC50 (Colo205 cells; COLO 205, 72 h): 30 to 200 nM; IC50 (Colo205 cells; COLO 205, 96 h): ≤ 50 nM |
| Cc1cc(Nc2cc(N3CC(F)(C4CC4)C3)nc(Sc3ccc(NC(=O)CC(F)(F)F)nc3)n2)[nH]n1 [Compound 211] | – | ≤ 10 | – | – | – | IC50 (Colo205 cells; COLO 205, 72 h): ≤ 30 nM |
| Cc1cc(Nc2cc(N3CC(O)(C4CC4)C3)nc(Sc3ccc(NC(=O)C4CCCC4)cc3)n2)[nH]n1 [Compound 104] | – | 10 to 500 | ≤ 50 | – | – | – |
| Cc1cc(Nc2cc(N3CC(O)(C4CC4)C3)nc(Sc3ccc(NC(=O)C4CC4(F)F)cc3)n2)[nH]n1 (stereo not shown) [Compound 113] | ≤ 30 | ≤ 10 | – | – | – | – |
| CCC(=O)Nc1ccc(Sc2nc(Nc3cc(C)n[nH]3)cc(N3CC(O)(C4CCCC4)C3)n2)cc1 [Compound 97] | – | 10 to 500 | – | – | – | IC50 (Colo205 cells; COLO 205, 72 h): ≤ 30 nM; IC50 (Colo205 cells; COLO 205, 96 h): > 1000 nM |
| Cc1cc(Nc2cc(N3CC(O)(C4CC4)C3)nc(Sc3ccc(NC(=O)C4CC4)cc3F)n2)[nH]n1 [Compound 110] | – | ≤ 10 | ≤ 50 | – | – | – |
| CCC(=O)Nc1ccc(Sc2nc(Nc3cc(C)n[nH]3)cc(N3CC(O)(C4CC4)C3)n2)cc1 [Compound 85] | ≤ 30 | 10 to 500 | ≤ 50 | – | – | – |
| Cc1cc(Nc2cc(N3CC(F)(C4CC4)C3)nc(Sc3ccc(NC(=O)C4CC4(F)F)cc3)n2)[nH]n1 (stereo not shown) [Compound 194] | ≤ 30 | 10 to 500 | – | – | – | – |
| Cc1cc(Nc2cc(N3CC(F)(C4CC4)C3)nc(Sc3ccc(NC(=O)C4CC4)cc3)n2)n[nH]1 [Compound 128] | – | 10 to 500 | – | – | – | IC50 (Colo205 cells; COLO 205, 72 h): 30 to 200 nM; IC50 (Colo205 cells; COLO 205, 96 h): ≤ 50 nM |
| Cc1cc(Nc2cc(N3CC(F)(C4CC4)C3)nc(Sc3ccc(NC(=O)CC(F)(F)F)cc3)n2)[nH]n1 [Compound 135] | – | ≤ 10 | – | – | – | IC50 (Colo205 cells; COLO 205, 72 h): ≤ 30 nM; IC50 (Colo205 cells; COLO 205, 96 h): ≤ 50 nM |
| CCN(CC)C(=O)Nc1ccc(Sc2nc(Nc3cc(C)[nH]n3)cc(N3CCC3)n2)cc1 [Compound 72] | – | – | > 1000 | 50 to 2000 nM | 5 to 200 | – |
| CC(=O)OC1(C2CC2)CN(c2cc(Nc3cc(C)n[nH]3)nc(Sc3ccc(NC(=O)C4CC4)cc3)n2)C1 [Compound 107] | – | – | ≤ 50 | 10 to 50 nM | ≤ 1 | – |
| Cc1cc(Nc2cc(N3CCC3)nc(Sc3ccc(NC(=O)c4sccc4Cl)cc3)n2)n[nH]1 [Compound 43] | – | – | 50 to 1000 | 10 to 50 nM | 1 to 5 | – |
| Cc1cc(Nc2cc(N3CCC3)nc(Sc3ccc(C(=O)NC4CC4)cc3)n2)n[nH]1 [Compound 18] | – | – | 50 to 1000 | 10 to 50 nM and < 25 nM | – | Ki (Aurora-2 (Aurora A)): 5 to 200 nM |
| Cc1cc(Nc2cc(N3CC(F)(C4CC4)C3)nc(Sc3ccc4c(c3)N(C)C(C(F)(F)F)N4)n2)[nH]n1 (stereo not shown) [Compound 156] | 30 to 200 | – | 50 to 1000 | 10 to 50 nM and < 25 nM | ≤ 1 | – |
| Cc1cc(Nc2cc(N3CC(O)(C4CC4)C3)nc(Sc3ccc(N4CCCC4=O)cc3)n2)n[nH]1 [Compound 133] | ≤ 30 | – | – | 10 to 50 nM and < 25 nM | ≤ 1 | – |
| CCC(=O)Nc1ccc(Sc2nc(CCN3CCC3)cc(Nc3cc(C)n[nH]3)n2)cc1 [Compound 197] | > 200 | – | – | 50 to 2000 nM | 5 to 200 | – |
| Cc1cc(Nc2cc(N3CCC3)nc(Sc3ccc(NC(=O)Cc4ccc(Cl)cc4)cc3)n2)n[nH]1 [Compound 36] | – | – | 50 to 1000 | 10 to 50 nM and < 25 nM | ≤ 1 | – |
| CCOP(=O)(O)OC1(C)CN(c2cc(Nc3cc(C)n[nH]3)nc(Sc3ccc(NC(=O)c4ccccc4C(F)(F)F)cc3)n2)C1 [Compound 129] | > 200 | – | – | ≤ 10 nM | ≤ 1 | – |
| Cc1cc(Nc2cc(N3CC(F)(C4CC4)C3)nc(Nc3ccc4nc(C(F)(F)F)[nH]c4c3)n2)[nH]n1 [Compound 210] | > 200 | – | – | 50 to 2000 nM | 1 to 5 | – |
| Cc1cc(Nc2cc(N3CC(F)(C4CC4)C3)nc(Sc3ccc4nc(C)ccc4c3)n2)[nH]n1 [Compound 154] | – | – | 50 to 1000 | 10 to 50 nM and < 25 nM | ≤ 1 | – |
| Cc1cc(Nc2cc(N3CC(C)(C#N)C3)nc(Sc3ccc(NC(=O)c4ccccc4C(F)(F)F)cc3)n2)[nH]n1 [Compound 122] | 30 to 200 | – | – | ≤ 10 nM | ≤ 1 | – |
| CCC(=O)Nc1ccc(Sc2nc(Nc3cc(C)n[nH]3)cc(N3CC(N4CCC4)C3)n2)cc1 [Compound 70] | – | – | ≤ 50 | 50 to 2000 nM | 1 to 5 | – |
